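How tested: cells in 96-well plates exposed to compound for 48 hours at five concentrations. Abbreviation: GI50, concentration required for 50% inhibition of growth.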 Active and inactive are the calls of the source. No stated cut-off is given here; in the data, active = GI50 up to about 1.1 µM and inactive = higher. Where a SMILES comes first, the peptide text is derived from it. The star is where a group is joined. Boc = CC(C)(C)OC(=O)*
Key:
Test in all cases: NCI tumour cell line growth inhibition, 48 h
[1] = tested on: A549
[2] = tested on: CAKI-1
[3] = tested on: DU-145
[4] = tested on: EKVX
[5] = tested on: HCC 2998
[6] = tested on: HOP-62
[7] = tested on: KM12
[8] = tested on: M14
[9] = tested on: MCF7
[10] = tested on: MDA-MB-435
[11] = tested on: NCI-H23
[12] = tested on: NCI-H460
[13] = tested on: NCI-H522
[14] = tested on: T47D
[15] = tested on: U-251

SMILES	GI50 [1]	GI50 [2]	GI50 [3]	GI50 [4]	GI50 [5]	GI50 [6]	GI50 [7]	GI50 [8]	GI50 [9]	GI50 [10]	GI50 [11]	GI50 [12]	GI50 [13]	GI50 [14]	GI50 [15]
COC1=CC(=O)c2c(c(COP(=O)(N(C)CCBr)N(C)CCBr)cn2C)C1=O	< 0.01 µM (active)	< 0.01 µM (active)	0.0134 µM (active)	0.211 µM (active)	0.0373 µM (active)	< 0.0203 µM (active)	0.219 µM (active)	< 0.0178 µM (active)	< 0.01 µM (active)	0.0588 µM (active)	< 0.0326 µM (active)	< 0.01 µM (active)	0.138 µM (active)	1.31 µM (inactive)	< 0.0225 µM (active)
Oc1ccc(Cl)cc1Cc1cc(Cl)cc(Cc2cc(Cl)ccc2O)c1O	2.83 µM (inactive)	2.48 µM (inactive)	2.96 µM (inactive)	2.33 µM (inactive)	0.836 µM (active)	2.5 µM (inactive)	2.64 µM (inactive)	2.39 µM (inactive)	2.21 µM (inactive)	2.82 µM (inactive)	2.01 µM (inactive)	1.77 µM (inactive)	0.766 µM (active)	2.07 µM (inactive)	2.7 µM (inactive)
Cc1sc2nc(-c3ccc([N+](=O)[O-])cc3)c(/C=N/N=C(N)N)n2c1C	1.45 µM (inactive)	2.07 µM (inactive)	1.27 µM (inactive)	1.17 µM (inactive)	0.175 µM (active)	0.689 µM (active)	0.301 µM (active)	0.67 µM (active)	0.555 µM (active)	0.979 µM (active)	1.43 µM (inactive)	1.75 µM (inactive)	1.32 µM (inactive)	0.664 µM (active)	0.179 µM (active)
c1ccc(/C(=N/Nc2ccccn2)c2ncccn2)cc1	3.62 µM (inactive)	0.0528 µM (active)	3.99 µM (inactive)	0.292 µM (active)	> 30 µM (inactive)	3.31 µM (inactive)	3.18 µM (inactive)	0.386 µM (active)	0.175 µM (active)	2.77 µM (inactive)	1.74 µM (inactive)	0.906 µM (active)	< 0.0172 µM (active)	0.0346 µM (active)	2.07 µM (inactive)
COc1ccc(OC)c(NC2=NCCO2)c1	> 100 µM (inactive)	15 µM (inactive)	> 100 µM (inactive)	> 100 µM (inactive)	> 100 µM (inactive)	> 100 µM (inactive)	> 100 µM (inactive)	> 100 µM (inactive)	> 100 µM (inactive)	89.7 µM (inactive)	52.4 µM (inactive)	> 100 µM (inactive)	> 100 µM (inactive)	> 100 µM (inactive)	> 100 µM (inactive)
CNC1=C(C)C(=O)C(O)=C([C@H](C)CCC=C(C)C)C1=O	20.3 µM (inactive)	11.6 µM (inactive)	30.6 µM (inactive)	2.33 µM (inactive)	31.8 µM (inactive)	12.8 µM (inactive)	17 µM (inactive)	22.2 µM (inactive)	37.2 µM (inactive)	29.6 µM (inactive)	20 µM (inactive)	10.5 µM (inactive)	3.77 µM (inactive)	25.4 µM (inactive)	27.7 µM (inactive)
C=C(Br)CNCC(=C)Br	> 100 µM (inactive)	> 100 µM (inactive)	> 100 µM (inactive)	> 100 µM (inactive)	> 100 µM (inactive)	> 100 µM (inactive)	> 100 µM (inactive)	> 100 µM (inactive)	> 100 µM (inactive)	> 100 µM (inactive)	> 100 µM (inactive)	> 100 µM (inactive)	> 100 µM (inactive)	> 100 µM (inactive)	> 100 µM (inactive)
C[C@H]1[C@H](C)N1CC(O)Cn1ccnc1[N+](=O)[O-] (some centres undefined)	> 100 µM (inactive)	> 100 µM (inactive)	> 100 µM (inactive)	> 100 µM (inactive)	> 100 µM (inactive)	> 100 µM (inactive)	> 100 µM (inactive)	> 100 µM (inactive)	> 100 µM (inactive)	> 100 µM (inactive)	> 100 µM (inactive)	> 100 µM (inactive)	> 100 µM (inactive)	> 100 µM (inactive)	> 100 µM (inactive)
O=C(CCO)OCCCCCC/C=C\CCCCCC/C=C\CCCCCCCCOC(=O)CCO	15.9 µM (inactive)	21.7 µM (inactive)	16.4 µM (inactive)	18.3 µM (inactive)	16.5 µM (inactive)	17.1 µM (inactive)	19.1 µM (inactive)	17.1 µM (inactive)	15.7 µM (inactive)	21.2 µM (inactive)	17.9 µM (inactive)	17.3 µM (inactive)	16.5 µM (inactive)	17.1 µM (inactive)	16.7 µM (inactive)
CC(C)OP(=O)(OC(C)C)/C(C#N)=C/c1c[nH]c2ccccc12	> 100 µM (inactive)	> 100 µM (inactive)	> 100 µM (inactive)	48.9 µM (inactive)	> 100 µM (inactive)	> 100 µM (inactive)	> 100 µM (inactive)	60.7 µM (inactive)	28.7 µM (inactive)	65.5 µM (inactive)	46.2 µM (inactive)	> 100 µM (inactive)	> 100 µM (inactive)	49.8 µM (inactive)	> 100 µM (inactive)
O=C(c1ccco1)N(Cc1cccnc1)C(=S)N(Cc1cccnc1)C(=O)c1ccco1	20.5 µM (inactive)	19.9 µM (inactive)	19.5 µM (inactive)	19.8 µM (inactive)	17.5 µM (inactive)	13.1 µM (inactive)	3.9 µM (inactive)	12.9 µM (inactive)	3.86 µM (inactive)	11.6 µM (inactive)	23.8 µM (inactive)	22.6 µM (inactive)	13.5 µM (inactive)	24.5 µM (inactive)	16.3 µM (inactive)
C=C(Cl)c1c(OC)cccc1OCc1ccccc1	> 100 µM (inactive)	> 100 µM (inactive)	> 100 µM (inactive)	59.4 µM (inactive)	37.4 µM (inactive)	> 100 µM (inactive)	54.2 µM (inactive)	> 100 µM (inactive)	58.5 µM (inactive)	37 µM (inactive)	26.1 µM (inactive)	> 100 µM (inactive)	44.6 µM (inactive)	25.1 µM (inactive)	> 100 µM (inactive)
CCN1C(NN)=NS(=O)(=O)c2ccccc21	> 100 µM (inactive)	> 100 µM (inactive)	> 100 µM (inactive)	> 100 µM (inactive)	> 100 µM (inactive)	> 100 µM (inactive)	> 100 µM (inactive)	> 100 µM (inactive)	> 100 µM (inactive)	> 100 µM (inactive)	> 100 µM (inactive)	> 100 µM (inactive)	> 100 µM (inactive)	> 100 µM (inactive)	> 100 µM (inactive)
COC(=O)N1CC[C@@H]2CCC=C(c3cccc4c3OCO4)[C@@H]21	> 100 µM (inactive)	> 100 µM (inactive)	> 100 µM (inactive)	79.4 µM (inactive)	> 100 µM (inactive)	> 100 µM (inactive)	> 100 µM (inactive)	> 100 µM (inactive)	> 100 µM (inactive)	> 100 µM (inactive)	> 100 µM (inactive)	60 µM (inactive)	> 100 µM (inactive)	32.1 µM (inactive)	> 100 µM (inactive)
N#CCCN(CCCN(C(=O)N(c1ccccc1)c1ccccc1)c1ccccc1)C(=O)Nc1ccccc1	18.9 µM (inactive)	> 100 µM (inactive)	> 100 µM (inactive)	35.6 µM (inactive)	> 100 µM (inactive)	> 100 µM (inactive)	41.6 µM (inactive)	> 100 µM (inactive)	18.2 µM (inactive)	> 100 µM (inactive)	> 100 µM (inactive)	40 µM (inactive)	58.3 µM (inactive)	64.9 µM (inactive)	92 µM (inactive)
O=C(Nc1ccccc1)c1cc(S(=O)(=O)n2ccnc2O)c(S)cc1Cl	> 100 µM (inactive)	> 100 µM (inactive)	> 100 µM (inactive)	> 100 µM (inactive)	> 100 µM (inactive)	> 100 µM (inactive)	> 100 µM (inactive)	> 100 µM (inactive)	> 100 µM (inactive)	> 100 µM (inactive)	> 100 µM (inactive)	> 100 µM (inactive)	> 100 µM (inactive)	> 100 µM (inactive)	> 100 µM (inactive)
O=C(CCN1CCCCC1)Nc1ccc2sc3ccccc3c(=O)c2n1	15 µM (inactive)	11.5 µM (inactive)	18.4 µM (inactive)	20.2 µM (inactive)	14.4 µM (inactive)	13.1 µM (inactive)	15.9 µM (inactive)	13.6 µM (inactive)	15.9 µM (inactive)	13.1 µM (inactive)	> 10 µM (inactive)	13.7 µM (inactive)	12 µM (inactive)	28.4 µM (inactive)	14.6 µM (inactive)
CCOC(=O)C(CC(C)C)NC(=O)C(Cc1ccccc1)NC(=O)CNC(=O)OC(C)(C)C (stereo not drawn) (Boc-Gly-Phe-Leu-OEt; configuration not given here)	18.7 µM (inactive)	0.145 µM (active)	21.3 µM (inactive)	22.3 µM (inactive)	19.7 µM (inactive)	28.2 µM (inactive)	18.5 µM (inactive)	20 µM (inactive)	2.44 µM (inactive)	18.2 µM (inactive)	–	12.1 µM (inactive)	19.1 µM (inactive)	26.5 µM (inactive)	17.7 µM (inactive)

Source: ChEMBL document CHEMBL1201862, “PubChem BioAssay data set” (2004)
